Measurements taken from patent US11709165B2, “Examination method for prediction of effect of treatment of cancer based on detection of cancer/testis antibodies” (KAWASAKI GAKUEN EDUCATIONAL FOUNDATION, priority 2017, dated 2023).
Like-named read-outs stand apart in the source and are kept apart here. Where no end group is shown, it is not given here.

Experiments:
[1] = test system: previously treated squamous-cell lung cancer; conditions: cited from earlier work; for Median survival time (MST): CheckMate-017, primary outcome; for Disease progression rate / Response rate: CheckMate-017
[2] = test system: previously treated non-squamous non-small-cell lung cancer; conditions: cited from earlier work; for Median survival time (MST): CheckMate-057, primary outcome; for Disease progression rate / Response rate: CheckMate-057
[3] = test system: previously treated non-small-cell lung cancer; conditions: cited from earlier work
[4] = test system: previously treated non-small-cell lung cancer; conditions: cited from earlier work; for MST: POPLAR
[5] = Repeated administration toxicity trial for 10 weeks into the dorsal skin; conditions: both sexes, Sprague-Dawley (Crl:CD(SD)), rat, in vivo; both males and females, 10 weeks repeated administration; read-out: No-observed-adverse-effect level
Method: A toxicity trial was performed in which a mixture of SLP1 and SLP2 was repeatedly administered for 10 weeks (intermittently administered five times every 14 days) with an adjuvant into the dorsal skin of Sprague-Dawley rats (Crl:CD(SD), 6-week-old at the start of administration, a group of 10 males and 10 females).
The following two doses were adopted as the doses of the test substances: 0.2 mg/kg (SLP1: 0.2 mg/kg+SLP2: 0.2 mg/kg) and 2 mg/kg (SLP1: 2 mg/kg+SLP2: 2 mg/kg). SLP1 and SLP2 dissolved in water for injection and Picibanil were mixed with an equal amount of an oil adjuvant MONTANIDE ISA 51 VG (ISA51) to provide an emulsion, which was administered into the dorsal skin in an administration volume of 1 mL/kg. Further, a vehicle control group to be administered an emulsion of water for injection and Picibanil with ISA51 and a physiological saline control group to be administered physiological saline were formed.
During the administration period, general condition observation, body weight measurement, and food intake measurement were performed, and urine examination and ophthalmologic examination were performed in week 10 of the administration. At the end of the administration period, hematological examination, blood chemical examination, an autopsy, organ weight measurement, and histopathological examination were performed.

[6] = KEYNOTE-010, tumor PD-L1 expression of 1% or more
[7] = KEYNOTE-010, tumor PD-L1 expression of 50% or more

| Compound | Median survival time (MST) [1] [months] | Disease progression rate [1] [%] | Response rate [1] [%] | Median survival time (MST) [2] [months] | Disease progression rate [2] [%] | Response rate [2] [%] | MST [4] [months] | NOAEL at 1680 h [5] [mg/kg] | other results |
| --- | --- | --- | --- | --- | --- | --- | --- | --- | --- |
| nivolumab | 9.2 | 33 | 36 | 12.2 | 44 | 19 | – | – | – |
| CC(=O)O[C@@]12CO[C@@H]1C[C@H](O)[C@@]1(C)C(=O)[C@H](O)C3=C(C)[C@@H](OC(=O)[C@H](O)[C@@H](NC(=O)OC(C)(C)C)c4ccccc4)C[C@@](O)([C@@H](OC(=O)c4ccccc4)[C@H]21)C3(C)C [docetaxel] | 6.0 | 30 | 31 | 9.4 | 29 | 12 | 9.7 | – | MST [3, 6]: 8.5 months; Response rate [3, 6]: 9.3%; Response rate [3, 7]: 7.9%; Response rate ([4]; group expressing no PD-L1 in the cancer immune microenvironment): about 15% |
| ISQTPGINLDLGSGVKVKIIPKEEH [SLP2] | – | – | – | – | – | – | – | > 2 | – |
| NQQLKVGILHLGSRQKKIRIQLRSQ [SLP1] | – | – | – | – | – | – | – | > 2 | – |
| atezolizumab | – | – | – | – | – | – | 12.6 | – | Response rate ([4]; group highly expressing PD-L1 in the cancer immune microenvironment): 38% |
| pembrolizumab | – | – | – | – | – | – | – | – | Progression-free survival (PFS) as compared to docetaxel group [3, 6]: No significant difference; PFS as compared to docetaxel group [3, 7]: significantly improved |
